The molecules below were run against T1, human PAH with the R408W mutation (Homo sapiens, UniProt P00439, R408W) (assay: Cell Based Phenylalanine Flux Assay). Conditions: A375 cells expressing human PAH R408W; 24 hrs compound incubation; 13C-Tyrosine by LC-MS; average where tested multiple times; read-out: AC50.
T1 construct: expressed in transfected cells
T1 sequence (P00439 1-452 R408W): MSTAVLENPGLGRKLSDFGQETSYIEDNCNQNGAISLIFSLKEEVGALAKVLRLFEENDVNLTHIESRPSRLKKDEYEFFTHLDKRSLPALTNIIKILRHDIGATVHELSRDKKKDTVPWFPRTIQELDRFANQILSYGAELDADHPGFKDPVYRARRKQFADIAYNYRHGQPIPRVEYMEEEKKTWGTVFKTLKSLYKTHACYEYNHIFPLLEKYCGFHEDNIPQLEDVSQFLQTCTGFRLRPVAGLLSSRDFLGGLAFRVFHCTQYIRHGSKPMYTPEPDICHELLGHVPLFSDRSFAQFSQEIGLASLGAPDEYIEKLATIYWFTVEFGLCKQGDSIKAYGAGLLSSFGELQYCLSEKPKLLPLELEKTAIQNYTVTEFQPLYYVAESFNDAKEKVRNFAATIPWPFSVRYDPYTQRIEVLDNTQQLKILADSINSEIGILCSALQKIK
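Further: after compound treatment, cells received sepiapterin plus isotope-labelled Phenylalanine for 4 hours, then labelled Tyrosine in the medium was quantified, 10-point 2-fold dilution series run in duplicate.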

| AC50 | Molecule |
| --- | --- |
| 1 to 5 µM | Cc1nnc(C(=O)N2CCc3[nH]cnc3[C@H]2c2cc3c(C)cccn3n2)s1 [Example 2501, (S)-(5-methyl-1,3,4-thiadiazol-2-yl)(4-(4-methylpyrazolo[1,5-a]pyridin-2-yl)-1,4,6,7-tetrahydro-5H-imidazo[4,5-c]pyridin-5-yl)methanone] |
| 1 to 5 µM | Cc1cccn2nc([C@@H]3c4nc[nH]c4CCN3C(=O)c3nc4ccccc4s3)cc12 [Example 2502, (S)-benzo[d]thiazol-2-yl(4-(4-methylpyrazolo[1,5-a]pyridin-2-yl)-1,4,6,7-tetrahydro-5H-imidazo[4,5-c]pyridin-5-yl)methanone] |
| > 5 µM | Cc1cccn2nc([C@H]3c4nc[nH]c4CCN3C(=O)c3nc4ccccc4s3)cc12 [Example 2503, (R)-benzo[d]thiazol-2-yl(4-(4-methylpyrazolo[1,5-a]pyridin-2-yl)-1,4,6,7-tetrahydro-5H-imidazo[4,5-c]pyridin-5-yl)methanone] |
| 1 to 5 µM | Cn1ccc(-c2ncc(C(=O)N3CCc4[nH]cnc4[C@H]3c3cc4c(F)cccn4n3)o2)n1 [Example 2505, (S)-(4-(4-fluoropyrazolo[1,5-a]pyridin-2-yl)-1,4,6,7-tetrahydro-5H-imidazo[4,5-c]pyridin-5-yl)(2-(1-methyl-1H-pyrazol-3-yl)oxazol-5-yl)methanone] |
| 1 to 5 µM | Cn1cc(-c2ncc(C(=O)N3CCc4[nH]cnc4[C@H]3c3cc4c(C(F)(F)F)cccn4n3)o2)cn1 [Example 2506, (S)-(2-(1-methyl-1H-pyrazol-4-yl)oxazol-5-yl)(4-(4-(trifluoromethyl)pyrazolo[1,5-a]pyridin-2-yl)-1,4,6,7-tetrahydro-5H-imidazo[4,5-c]pyridin-5-yl)methanone] |
| 1 to 5 µM | FC(F)(F)c1cccn2nc([C@@H]3c4nc[nH]c4CCN3c3nnc(-c4cnccn4)o3)cc12 [Example 2510, (S)-2-(pyrazin-2-yl)-5-(4-(4-(trifluoromethyl)pyrazolo[1,5-a]pyridin-2-yl)-1,4,6,7-tetrahydro-5H-imidazo[4,5-c]pyridin-5-yl)-1,3,4-oxadiazole] |
| 1 to 5 µM | O=C(c1cnc(-c2cnccn2)o1)N1CCc2[nH]cnc2[C@H]1c1cc2c(F)cccn2n1 [Example 2516, (S)-(4-(4-fluoropyrazolo[1,5-a]pyridin-2-yl)-1,4,6,7-tetrahydro-5H-imidazo[4,5-c]pyridin-5-yl)(2-(pyrazin-2-yl)oxazol-5-yl)methanone] |
| > 5 µM | O=C(c1cnc(-c2cnccn2)o1)N1CCc2[nH]cnc2[C@@H]1c1cc2c(F)cccn2n1 [Example 2517, (R)-(4-(4-fluoropyrazolo[1,5-a]pyridin-2-yl)-1,4,6,7-tetrahydro-5H-imidazo[4,5-c]pyridin-5-yl)(2-(pyrazin-2-yl)oxazol-5-yl)methanone] |
| 1 to 5 µM | FC(F)c1cccc2cc([C@@H]3c4nc[nH]c4CCN3c3nnc(-c4cnccn4)o3)nn12 [Example 2521, (S)-2-(4-(7-(difluoromethyl)pyrazolo[1,5-a]pyridin-2-yl)-1,4,6,7-tetrahydro-5H-imidazo[4,5-c]pyridin-5-yl)-5-(pyrazin-2-yl)-1,3,4-oxadiazole] |

Second part, the molecule before the results:

| Molecule | AC50 |
| --- | --- |
| FC(F)(F)c1nnc(N2CCc3[nH]cnc3[C@H]2c2cc3cccc(C(F)(F)F)n3n2)o1 [Example 2491, (S)-2-(trifluoromethyl)-5-(4-(7-(trifluoromethyl)pyrazolo[1,5-a]pyridin-2-yl)-1,4,6,7-tetrahydro-5H-imidazo[4,5-c]pyridin-5-yl)-1,3,4-oxadiazole] | 1 to 5 µM |
| FC(F)(F)c1nnc(N2CCc3[nH]cnc3[C@H]2c2cc3cccc(Cl)n3n2)o1 [Example 2493, (S)-2-(4-(7-chloropyrazolo[1,5-a]pyridin-2-yl)-1,4,6,7-tetrahydro-5H-imidazo[4,5-c]pyridin-5-yl)-5-(trifluoromethyl)-1,3,4-oxadiazole] | 1 to 5 µM |
| O=C(c1cnc(C2CC2)o1)N1CCc2[nH]cnc2[C@H]1c1cc2ccccn2n1 [Example 2496, (S)-(2-cyclopropyloxazol-5-yl)(4-(pyrazolo[1,5-a]pyridin-2-yl)-1,4,6,7-tetrahydro-5H-imidazo[4,5-c]pyridin-5-yl)methanone] | 1 to 5 µM |
| Cc1cccn2nc([C@@H]3c4nc[nH]c4CCN3C(=O)c3cnc(-c4ccn(C)n4)o3)cc12 [Example 2499, (S)-(2-(1-methyl-1H-pyrazol-3-yl)oxazol-5-yl)(4-(4-methylpyrazolo[1,5-a]pyridin-2-yl)-1,4,6,7-tetrahydro-5H-imidazo[4,5-c]pyridin-5-yl)methanone] | 1 to 5 µM |
| Cn1ccc(-c2ncc(C(=O)N3CCc4[nH]cnc4[C@@H]3c3cc4c(F)cccn4n3)o2)n1 [Example 2504, (R)-(4-(4-fluoropyrazolo[1,5-a]pyridin-2-yl)-1,4,6,7-tetrahydro-5H-imidazo[4,5-c]pyridin-5-yl)(2-(1-methyl-1H-pyrazol-3-yl)oxazol-5-yl)methanone] | > 5 µM |
| FC(F)Oc1cccn2nc([C@@H]3c4nc[nH]c4CCN3c3nnc(C4CC4)o3)cc12 [Example 2509, (S)-2-cyclopropyl-5-(4-(4-(difluoromethoxy)pyrazolo[1,5-a]pyridin-2-yl)-1,4,6,7-tetrahydro-5H-imidazo[4,5-c]pyridin-5-yl)-1,3,4-oxadiazole] | 1 to 5 µM |
| FC(F)(F)c1cccn2nc([C@H]3c4nc[nH]c4CCN3c3nnc(-c4cnccn4)o3)cc12 [Example 2511, (R)-2-(pyrazin-2-yl)-5-(4-(4-(trifluoromethyl)pyrazolo[1,5-a]pyridin-2-yl)-1,4,6,7-tetrahydro-5H-imidazo[4,5-c]pyridin-5-yl)-1,3,4-oxadiazole] | > 5 µM |
| CC(F)(F)c1nnc(N2CCc3[nH]cnc3[C@H]2c2cc3cccc(C(F)F)n3n2)o1 [Example 2523, (S)-2-(1,1-difluoroethyl)-5-(4-(7-(difluoromethyl)pyrazolo[1,5-a]pyridin-2-yl)-1,4,6,7-tetrahydro-5H-imidazo[4,5-c]pyridin-5-yl)-1,3,4-oxadiazole] | 1 to 5 µM |
| O=C(c1nnc(-c2c(F)cccc2F)o1)N1CCc2[nH]cnc2C1c1cc2ccccn2n1 (centres unmarked) [Example 2524, (5-(2,6-difluorophenyl)-1,3,4-oxadiazol-2-yl)(4-(pyrazolo[1,5-a]pyridin-2-yl)-6,7-dihydro-1H-imidazo[4,5-c]pyridin-5(4H)-yl)methanone] | 0.5 to 1 µM |

Same assay, conditions: A375 cells expressing human R408W PAH; 24 hrs compound incubation; 13C-Tyrosine by LC-MS; average where tested multiple times; read-out: AC50

| Molecule | AC50 |
| --- | --- |
| (S)-(5-(2-fluoropropan-2-yl)-1,3.4-oxadiazol-2-yl)(4-(7-fluoropyrazolo[1,5-a]pyridin-2-yl)-6,7-dihydro-1H-imidazo[4,5-c(pyridin-5(4H)-yl)methanone [Example 1256] | < 0.5 µM |

Same assay, conditions: AC50, A375 cells expressing human PAH R408W; 24 hrs compound incubation; 13C-Tyrosine by LC-MS; average where tested multiple times

| Molecule | AC50 |
| --- | --- |
| CC(C)c1cccn2nc([C@@H]3c4nc[nH]c4CCN3c3nnc(C4CC(F)(F)C4)o3)cc12 [Example 2519, (S)-2-(3,3-difluorocyclobutyl)-5-(4-(4-isopropylpyrazolo[1,5-a]pyridin-2-yl)-1,4,6,7-tetrahydro-5H-imidazo[4,5-c]pyridin-5-yl)-1,3,4-oxadiazole] | 1 to 5 µM |

— patent US20230365592A1 (Agios Pharmaceuticals, Inc., priority 2022, published 2023)
